Patent publication US3951954A, “Novel oxofuryl ester derivatives of penicillin and cephalosporin” (priority 1971, dated 1976)
Structures can show the parent of a compound that is named as a salt.

Key:
[1] = Concentration of ampicillin in blood plasma of rats after oral administration (Experiment a); conditions: rat, in vivo, 20 mg/kg
Excerpt: Now, for showing the excellent properties of the compounds of this invention, the experiments of testing the concentration of the compound in blood when it was orally administered and the results thereof are shown in the following examples together with the results of the tests made about ampicillin and pivampicillin.
Each of ampicillin tri-hydrate, pivampicillin hydrochloride-mono-hydrate, and the hydrochloride of the aimed compound of this invention was orally administered to rats (male, each group five rats) in an amount of 20 mg/kg as ampicillin and after 0.5 hour, the blood was drawn and the concentration of ampicillin in the blood plasma was measured.

[2] = background statement; cited from earlier work
liver = conditions: Biochem. Pharmacol. 16, 1533-1537 (1967) and others; cited from earlier work
[3] = Chemical Abstracts 45, 4824h (1951); 55, 8653d (1961); cited from earlier work

CC1(C)S[C@@H]2[C@H](NC(=O)[C@H](N)c3ccccc3)C(=O)N2[C@H]1C(=O)O [Ampicillin tri-hydrate, reference compound]
concentration at 0.5 h [1]: 1000 ng/mL

CC1(C)S[C@@H]2[C@H](NC(=O)[C@H](N)c3ccccc3)C(=O)N2[C@H]1C(=O)OC1OC(=O)c2ccccc21 (some centres unmarked) [Example 2, ampicillin 1-oxo-1,3-dihydroisobenzofuran-3-yl ester hydrochloride]
Concentration of ampicillin in blood plasma ([1]; 30 min): 5580 ng/mL

CC1(C)S[C@@H]2C(NC(=O)C(N)c3ccccc3)C(=O)N2[C@H]1C(=O)O (stereo partly drawn) [ampicillin, 6-(α-aminophenylacetamido)penicillanic acid]
extent of absorption by oral administration [2]: not necessarily sufficient

C=O [formaldehyde]
influence on liver (liver): bad influences on a liver
toxic property compared with other aldehydes of larger molecular weight [3]: about 50 times
